Measured values reported in US12606557B2, “Substituted indoles with inhibitory activity” (UNIVERSITY OF PITTSBURGH—OF THE COMMONWEALTH SYSTEM OF …, priority 2020, dated 2026).
Several values for one entry are separate records, joined by “and”; a condition that tells them apart may be missing. Equal entries are not always repeated. Where two headings read alike, the source gives them in different places. Marks after values point to notes of the source that are not given here.

Experiments:
[1] = tested on: gentamicin-induced AKI in zebrafish larvae; assay: Gentamicin-induced AKI in zebrafish larvae (zfAKI assay), Kaplan-Meier survival; format: in vivo; details: two different doses, compared to the untreated control
Description: The gentamicin-induced AKI in zebrafish larvae (zfAKI assay), recapitulates injury and proliferation-based repair in mammalian AKI, but allows for higher throughput analysis of compound efficacy in AKI than mouse models. As fish are soaked in compounds, this assay is not subject to drug delivery and absorption problems that occur in early drug discovery in mice. This assay was used as a primary screening assay with the throughput being increased.

[2] = Plasma pharmacokinetics after a single intraperitoneal dose; format: in vivo, male CD1 mice; details: for plasma concentrations quantifiable up to: LLOQ 10.38 ng/mL; for concentration at 0.08 hr / concentration at 0.25 hr / concentration at 0.5 hr / concentration at 1 hr / concentration at 2 hr / concentration at 4 hr / concentration at 8 hr / concentration at 24 hr: intraperitoneal
Protocol: The objective of this example was to investigate the plasma pharmacokinetics of UPHH-000171 following a single intraperitoneal dose administration to male CD1 mice at 10 and 50 mg/kg. Eighteen male mice were divided in to two groups with nine animals in each group,
Animals in Group 1 and Group 2 were administered with solution formulation of UPHH-000171 in 5% NMP, 25% Solutol HS-15 and 70% normal saline intraperitoneally at 10 and 50 mg/kg dose, respectively.
The blood samples were collected from set of three mice at each time point in labeled micro centrifuge tube containing K2EDTA solution as anticoagulant at Pre-dose, 0.08, 0.25, 0.5, 1, 2, 4, 8 and 24 hr. Plasma samples were separated by centrifugation of whole blood and stored below −70±10° C. until bioanalysis. All samples were processed for analysis by protein precipitation using acetonitrile and analyzed with fit-for-purpose LC-MS/MS method (LLOQ=10.38 ng/mL). Pharmacokinetic parameters were calculated using the non-compartmental analysis tool of Phoenix WinNonlin® (Version 7.0). Mean pharmacokinetic parameters are summarized below: […]

HDAC8 = molecular target: T1, HDAC8 (Homo sapiens, UniProt Q9BY41); assay: Cellular thermal shift assay (CETSA) for HDAC8 binding; details: compared to a control with no compound, FIG. 1
T1 construct: CETSA uses cell lysates heated to different temperatures and quantifies the target protein in the soluble fraction by western blot; endogenous in cells; host or cells: cell lysate
T1 sequence (Q9BY41 1-377): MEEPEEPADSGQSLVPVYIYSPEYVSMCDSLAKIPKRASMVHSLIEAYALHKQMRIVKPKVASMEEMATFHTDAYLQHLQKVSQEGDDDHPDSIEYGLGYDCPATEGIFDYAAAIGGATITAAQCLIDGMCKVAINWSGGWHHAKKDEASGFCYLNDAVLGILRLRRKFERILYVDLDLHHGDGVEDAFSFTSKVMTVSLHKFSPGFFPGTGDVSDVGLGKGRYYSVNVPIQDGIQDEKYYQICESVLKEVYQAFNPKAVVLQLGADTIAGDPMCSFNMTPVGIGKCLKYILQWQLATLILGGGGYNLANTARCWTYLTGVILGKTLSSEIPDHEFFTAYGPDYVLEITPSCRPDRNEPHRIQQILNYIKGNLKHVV
Description: Cellular thermal shift assay (CETSA) was developed from the same principles of ligand induced thermal stability assays (TSA) of proteins. During TSA, purified proteins are heated in the absence or presence of ligand and then quickly cooled. Proteins that are bound to ligand are more thermally stable than their unbound counterparts, and these “thermal shifts” can be detected by various methods. CETSA uses cell lysates heated to different temperatures and quantifies the target protein in the soluble fraction by western blot. CETSA is a direct measurement of […] through the measurement of the biophysical properties that stabilized the protein-ligand complex under thermal denaturation. The UPHH-00171 compound was tested in the CETSA assay, specifically for HDAC8 binding.

[3] = male, CD1, mouse, 10 mg/kg IP, plasma
[4] = male, CD1, mouse, 50 mg/kg IP, plasma

## COc1ccc(Cn2ccc3ccc(C(=O)NS(C)(=O)=O)cc32)cc1 [UPHH-000171, 1-(4-methoxybenzyl)-N-(methylsulfonyl)-1H-indole-6-carboxamide]
[1]
  survival in zfAKI assay: increase survival
[2]; 10 mg/kg IP, 0.08 hr
  Plasma Concentration, individual animal: 9871.25 ng/mL and 2877.79 ng/mL and 7508.44 ng/mL
[2]; 10 mg/kg IP, 0.25 hr
  Plasma Concentration, individual animal: 28861.97 ng/mL and 28672.95 ng/mL
[2]; 10 mg/kg IP, 0.5 hr
  Plasma Concentration, individual animal: 41628.22 ng/mL and 36468.73 ng/mL
[2]; 10 mg/kg IP, 1 hr
  Plasma Concentration, individual animal: 49594.52 ng/mL and 19264.72 ng/mL and 34912.30 ng/mL
[2]; 10 mg/kg IP, 2 hr
  Plasma Concentration, individual animal: 46853.15 ng/mL and 43408.40 ng/mL
[2]; 10 mg/kg IP, 4 hr
  Plasma Concentration, individual animal: 47512.89 ng/mL and 73497.85 ng/mL and 31815.34 ng/mL
[2]; 10 mg/kg IP, 8 hr
  Plasma Concentration, individual animal: 20138.85 ng/mL and 29805.54 ng/mL
[2]; 10 mg/kg IP, 24 hr, animal 7 excluded as an outlier
  Plasma Concentration, individual animal: 2930.59^e ng/mL and 131.01 ng/mL and 68.44 ng/mL
[2]; 10 mg/kg IP
  plasma concentrations quantifiable up to: up to 24 hr
[2]; 50 mg/kg IP, 0.08 hr
  Plasma Concentration, individual animal: 59305.08 ng/mL and 90638.28 ng/mL
[2]; 50 mg/kg IP, 0.25 hr
  Plasma Concentration, individual animal: 31701.46 ng/mL and 171000.65 ng/mL and 182938.71 ng/mL
[2]; 50 mg/kg IP, 0.5 hr
  Plasma Concentration, individual animal: 137922.52 ng/mL and 96505.03 ng/mL and 47522.98 ng/mL
[2]; 50 mg/kg IP, 1 hr
  Plasma Concentration, individual animal: 218799.23 ng/mL and 236020.35 ng/mL
[2]; 50 mg/kg IP, 2 hr
  Plasma Concentration, individual animal: 93162.33 ng/mL and 195094.83 ng/mL and 235858.27 ng/mL
[2]; 50 mg/kg IP, 4 hr
  Plasma Concentration, individual animal: 106201.99 ng/mL and 115510.21 ng/mL
[2]; 50 mg/kg IP, 8 hr
  Plasma Concentration, individual animal: 93195.14 ng/mL and 75070.05 ng/mL
[2]; 50 mg/kg IP, 24 hr
  Plasma Concentration, individual animal: 1407.79 ng/mL and 391.49 ng/mL and 1081.42 ng/mL
[2]; 50 mg/kg IP
  plasma concentrations quantifiable up to: up to 24 hr
[2]; from 10 mg/kg to 50 mg/kg IP
  dose related increase in plasma exposure (AUClast): 3 fold
[2]; male, CD1, mouse, plasma, 10 mg/kg, 10 mg/kg IP, 0.08 hr, read-out: Plasma Concentration, Mean
  concentration at 0.08 hr: 6.75 µg/mL
[2]; male, CD1, mouse, plasma, 10 mg/kg, 10 mg/kg IP, 0.25 hr, read-out: Plasma Concentration, Mean
  concentration at 0.25 hr: 30.2 µg/mL
[2]; male, CD1, mouse, plasma, 10 mg/kg, 10 mg/kg IP, 0.25 hr, read-out: Plasma Concentration, individual animal
  concentration at 0.25 hr: 33 µg/mL
[2]; male, CD1, mouse, plasma, 10 mg/kg, 10 mg/kg IP, 0.5 hr, read-out: Plasma Concentration, Mean
  concentration at 0.5 hr: 41.2 µg/mL
[2]; male, CD1, mouse, plasma, 10 mg/kg, 10 mg/kg IP, 0.5 hr, read-out: Plasma Concentration, individual animal
  concentration at 0.5 hr: 45.6 µg/mL
[2]; male, CD1, mouse, plasma, 10 mg/kg, 10 mg/kg IP, 1 hr, read-out: Plasma Concentration, Mean
  concentration at 1 hr: 34.6 µg/mL
[2]; male, CD1, mouse, plasma, 10 mg/kg, 10 mg/kg IP, 2 hr, read-out: Plasma Concentration, Mean
  concentration at 2 hr: 47.9 µg/mL
[2]; male, CD1, mouse, plasma, 10 mg/kg, 10 mg/kg IP, 2 hr, read-out: Plasma Concentration, individual animal
  concentration at 2 hr: 53.6 µg/mL
[2]; male, CD1, mouse, plasma, 10 mg/kg, 10 mg/kg IP, 4 hr, read-out: Plasma Concentration, Mean
  concentration at 4 hr: 50.9 µg/mL
[2]; male, CD1, mouse, plasma, 10 mg/kg, 10 mg/kg IP, 8 hr, read-out: Plasma Concentration, Mean
  concentration at 8 hr: 28.4 µg/mL
[2]; male, CD1, mouse, plasma, 10 mg/kg, 10 mg/kg IP, 8 hr, read-out: Plasma Concentration, individual animal
  concentration at 8 hr: 35.1 µg/mL
[2]; male, CD1, mouse, plasma, 10 mg/kg, 10 mg/kg IP, 24 hr, average of two values
  concentration at 24 hr: 0.0997 µg/mL
[2]; male, CD1, mouse, plasma, 50 mg/kg, 50 mg/kg IP, 0.08 hr, read-out: Plasma Concentration, Mean
  concentration at 0.08 hr: 79.6 µg/mL
[2]; male, CD1, mouse, plasma, 50 mg/kg, 50 mg/kg IP, 0.08 hr, read-out: Plasma Concentration, individual animal
  concentration at 0.08 hr: 89 µg/mL
[2]; male, CD1, mouse, plasma, 50 mg/kg, 50 mg/kg IP, 0.25 hr, read-out: Plasma Concentration, Mean
  concentration at 0.25 hr: 129 µg/mL
[2]; male, CD1, mouse, plasma, 50 mg/kg, 50 mg/kg IP, 0.5 hr, read-out: Plasma Concentration, Mean
  concentration at 0.5 hr: 94 µg/mL
[2]; male, CD1, mouse, plasma, 50 mg/kg, 50 mg/kg IP, 1 hr, read-out: Plasma Concentration, Mean
  concentration at 1 hr: 228 µg/mL
[2]; male, CD1, mouse, plasma, 50 mg/kg, 50 mg/kg IP, 1 hr, read-out: Plasma Concentration, individual animal
  concentration at 1 hr: 229 µg/mL
[2]; male, CD1, mouse, plasma, 50 mg/kg, 50 mg/kg IP, 2 hr, read-out: Plasma Concentration, Mean
  concentration at 2 hr: 175 µg/mL
[2]; male, CD1, mouse, plasma, 50 mg/kg, 50 mg/kg IP, 4 hr, read-out: Plasma Concentration, Mean
  concentration at 4 hr: 116 µg/mL
[2]; male, CD1, mouse, plasma, 50 mg/kg, 50 mg/kg IP, 4 hr, read-out: Plasma Concentration, individual animal
  concentration at 4 hr: 128 µg/mL
[2]; male, CD1, mouse, plasma, 50 mg/kg, 50 mg/kg IP, 8 hr, read-out: Plasma Concentration, Mean
  concentration at 8 hr: 90.1 µg/mL
[2]; male, CD1, mouse, plasma, 50 mg/kg, 50 mg/kg IP, 8 hr, read-out: Plasma Concentration, individual animal
  concentration at 8 hr: 102 µg/mL
[2]; male, CD1, mouse, plasma, 50 mg/kg, 50 mg/kg IP, 24 hr
  concentration at 24 hr: 0.96 µg/mL
[2]; [3]
  AUC(0-t): 558 µg·h/mL
  Cmax: 50.9 µg/mL
  Tmax: 4 h
[2]; [4]
  AUC(0-inf): 1770 µg·h/mL
  AUC(0-t): 1760 µg·h/mL
  Cmax: 228 µg/mL
  Tmax: 1 h
HDAC8; listed as UPHH171
  thermal stability of HDAC8 in CETSA: increased thermal stability
HDAC8; listed as UPHH-00171
  thermal stability of HDAC8 in CETSA: increase in thermal stability
